Laboratory results: patent US20180071317A1, “USE OF AGENTS THAT ALTER THE PERITUMORAL ENVIRONMENT FOR THE TREATMENT OF CANCER” (SERVICIO ANDALUZ DE SALUD, priority 2011, published 2018)

Experiments:
[1] = system: human primary fibroblasts (PHF); experiment: Marker expression (immunohistochemistry) in human primary fibroblasts with SP alone or with NK1 antagonists; format: cell-based; details: SP 1 μM + antagonist 1 μM; 48 h;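 note: primary human dermal fibroblasts, immunostained with rabbit polyclonal antibodies against each marker, value is percentage of stained cells among all cells counted in 20 fields at 400× per section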
mononuclear cells = experiment: Marker expression (immunohistochemistry) in mononuclear blood cells with SP alone or with NK1 antagonists; format: cell-based, human; details: SP 1 μM + antagonist 1 μM; 48 h
Excerpt: Briefly, heparinized blood from healthy donors was centrifuged so as to separate the various components thereof. Red blood cells remained at the bottom of the tube. Above them was a small white layer composed of the white blood cells and above, on top of the tube, the blood plasma. The layer of white cells was distributed in a culture plate of 24 wells by adding in each the same concentration of blood plasma from the same donor, supplemented with 1% antibiotic-antimycotic (Invitrogen). In each well, approximately 1000 cells (PHF) skin from the dermis were further added, obtained as previously described in Example 2. […] After 48 hours of incubation, cells were collected and embedded in paraffin for expression analysis by immunohistochemical techniques (as described in Example 1).
The expression of TGF molecular markers (anti-TGF 2, SAB4502956) and NF-kB (anti-NF-kB, SAB4501992) using specific antibodies against them were analyzed. All antibodies used were rabbit polyclonal antibodies obtained from Sigma Aldrich and were used at a concentration of 1/1000. All experiments were carried out sixfold.

[2] = system: fibroblasts (PHF) co-cultured with tumor cells of human pancreatic adenocarcinoma (CAPAN-1); experiment: Marker expression (IHC) in PHF co-cultured with CAPAN-1 tumor cells; format: cell-based; details: co-culture with CAPAN-1; SP 1 μM + antagonist 1 μM; 48 h;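 note: cultures grown in fresh plasma from a healthy human donor, run in six replicates, value is percent of fibroblasts positive for each marker, compared with fibroblasts cultured alone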
Description: All cultures were maintained 48 hours, following which the same cells were included in paraffin blocks for subsequent analysis of the expression of different markers by immunohistochemistry (see Example 1). The primary antibodies used to perform immunohistochemical assays and their concentration are detailed in Example 2. All experiments were carried out sixfold. Analyzed markers in fibroblast cells (stromal cells) were: TGF-α, TGF-β1, TGF-β2, TGF-β3, SPARC, MMP-3, MMP-7, MMP-9, MMP-11, MMP-13 and MMP-14.

[3] = system: fibroblasts (PHF) co-cultured with tumor cells of human breast carcinoma (MCF-7); experiment: Marker expression (IHC) in PHF co-cultured with MCF-7 tumor cells; format: cell-based; details: co-culture with MCF-7; SP 1 μM + antagonist 1 μM; 48 h;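 note: value is the percentage of fibroblasts positive for each marker, with fibroblasts cultured alone as reference, grown in fresh plasma from a healthy donor, six replicates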
Description: (§1) All cultures were maintained 48 hours, following which the same cells were included in paraffin blocks for subsequent analysis of the expression of different markers by immunohistochemistry (see Example 1). […] All experiments were carried out sixfold. Analyzed markers in fibroblast cells (stromal cells) were: TGF-α, TGF-β1, TGF-β2, TGF-β3, SPARC, MMP-3, MMP-7, MMP-9, MMP-11, MMP-13 and MMP-14.

[4] = system: fibroblasts (PHF) co-cultured with tumor cells of human endometrial carcinoma (AN3-CA); experiment: Marker expression (IHC) in PHF co-cultured with AN3-CA tumor cells; format: cell-based; details: co-culture with AN3-CA; SP 1 μM + antagonist 1 μM; 48 h;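 note: cultured in fresh healthy-donor blood plasma with added antibiotic-antimycotic, run in six replicates, values give percent of fibroblasts positive for each marker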
Description: as §1

[5] = system: fibroblasts (PHF) co-cultivated with tumor cell carcinoma of urinary bladder (5637); experiment: Marker expression (IHC) in PHF co-cultured with 5637 tumor cells; format: cell-based, human; details: co-culture with 5637; SP 1 μM + antagonist 1 μM; 48 h
Description: as §1

[6] = system: fibroblasts (PHF) co-cultured with human fibrosarcoma tumor cells (HT-1080); experiment: Marker expression (IHC) in PHF co-cultured with HT-1080 tumor cells; format: cell-based; details: co-culture with HT-1080; SP 1 μM + antagonist 1 μM; 48 h;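 note: cultures grown in fresh human plasma from a healthy donor, six replicates, value is percent of fibroblasts positive for the marker, compared with fibroblasts cultured without tumor cells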
Description: as §1

[7] = system: fibroblasts (PHF) co-cultured with tumor cells of human Edwing sarcoma (MHH-ES-1); experiment: Marker expression (IHC) in PHF co-cultured with MHH-ES-1 tumor cells; format: cell-based; details: PHF co-cultured with MHH-ES-1 + SP + NK1 antagonist
Description: as §1

[8] = system: fibroblasts of tumors produced by lung carcinoma non small cell human (HCC-44) cells; experiment: Marker expression (IHC) in fibroblasts of tumor or peritumoral area, mouse model, HCC-44; format: in vivo; details: HCC-44 tumors in mice, 30 mg/kg/day oral, 7 days
Description: Subsequently, the expression in fibroblasts tumoral and peritumoral area of molecular markers associated with progression and maintenance of tumors: TGF-α, TGF-β1, TGF-β2, TGF-β3, MMP-7, MMP-11, MMP-14 were analyzed by immunohistochemistry.
Were injected with 2×10^7 cells tumors (corresponding, in each case to each of the tumor types as specified in Table 9) in 200 of PBS subcutaneously μl. […] Mice were randomized into two groups when the tumors reached a volume of 75 mm^3 One group was treated with non-peptide receptor antagonists NK1 and the other with placebo 200μ1. […] Tumors and samples of non-neoplastic stromal areas remote from the tumor were halved, formalin fixed (4%) and then were included in paraffin blocks for analysis by immunohistochemistry.
The expression on fibroblast cells obtained in the animal model was analyzed by immunohistochemistry, of the above markers: TGF-α, TGF-β1, TGF-β2, TGF-β3, MMP-7, MMP-1 1, MMP-14MP-14. […] This process was realized in mice treated with non-peptide antagonists of NK1 receptor and in untreated animals (control).

[9] = system: fibroblast cells in co-culture with cells isolated from primary human tumors; experiment: Marker expression (IHC) in fibroblasts co-cultured with primary human tumor cells (colon, pancreatic, lung carcinoma, glioma, multiple myeloma); format: cell-based
Description: To check that the interaction of the human primary tumor cells with stromal cells, [human fibroblasts,] stimulates the secretion of substances of importance for survival and tumor progression, co-cultures were performed using stromal cells with human fibroblast-tumor cells obtained directly from primary human tumors.
On this occasion, in order to identify, using immunohistochemical techniques, the secretion of substances of importance for the survival and progression of tumors, the following antibodies were used: TGF-α (SAB4502953), TGF-β1 (SAB4502954), TGF-β2 (SAB4502956), TGF-β3 (SAB4502957), SPARC (HPA002989), MMP-3 (HPA007875), MMP-7 (SAB4501894), MMP-9 (SAB4501896), MMP-11 (SAB4501898) MMP-13 (SAB4501900) and MMP-14 (SAB4501901) using specific antibodies against them. All antibodies used were rabbit polyclonal antibodies obtained from Sigma-Aldrich and were used at a concentration of 1/1000 to achieve these immunohistochemical studies. All experiments were carried out sixfold.

[10] = Primary tumor cells (colon carcinoma) co-cultured + fibroblast + SP (1 μM) + NK1 antagonist 1 μM
[11] = co-culture with cells isolated from glioma, SP 1 μM + antagonist 1 μM
[12] = co-culture with cells isolated from lung cancer, SP 1 μM + antagonist 1 μM
[13] = co-culture with cells isolated from multiple myeloma, SP 1 μM + antagonist 1 μM
[14] = co-culture with cells isolated from pancreatic carcinoma, SP 1 μM + antagonist 1 μM

CC(=O)N1CCN([C@H]2CCN(C(=O)N(C)[C@H](C)c3cc(C(F)(F)F)cc(C(F)(F)F)c3)[C@@H](c3ccc(F)cc3C)C2)CC1 [Casopitant]
0%: PHF cells expressing MMP-3 [1] | PHF cells expressing MMP-7 [1] | PHF cells expressing MMP-9 [1] | PHF cells expressing MMP-11 [1] | PHF cells expressing MMP-13 [1] | PHF cells expressing MMP-14 [1] | PHF cells expressing SPARC [1] | PHF cells expressing TGFα [1] | PHF cells expressing TGFβ 1 [1] | PHF cells expressing TGFβ 2 [1] | PHF cells expressing TGFβ 3 [1] | mononuclear cells expressing NF-kB (mononuclear cells) | mononuclear cells expressing TGF-β (mononuclear cells) | PHF cells expressing MMP-3 [2] | PHF cells expressing MMP-7 [2] | PHF cells expressing MMP-9 [2] | PHF cells expressing MMP-11 [2] | PHF cells expressing MMP-13 [2] | PHF cells expressing MMP-14 [2] | PHF cells expressing SPARC [2] | PHF cells expressing TGF-α [2] | PHF cells expressing TGF-β1 [2] | PHF cells expressing TGF-β2 [2] | PHF cells expressing TGF-β3 [2] | PHF cells expressing MMP-3 [3] | PHF cells expressing MMP-7 [3] | PHF cells expressing MMP-9 [3] | PHF cells expressing MMP-11 [3] | PHF cells expressing MMP-13 [3] | PHF cells expressing MMP-14 [3] | PHF cells expressing SPARC [3] | PHF cells expressing TGF-α [3] | PHF cells expressing TGF-β1 [3] | PHF cells expressing TGF-β2 [3] | PHF cells expressing TGF-β3 [3] | PHF cells expressing MMP-3 [4] | PHF cells expressing MMP-7 [4] | PHF cells expressing MMP-9 [4] | PHF cells expressing MMP-11 [4] | PHF cells expressing MMP-13 [4] | PHF cells expressing MMP-14 [4] | PHF cells expressing SPARC [4] | PHF cells expressing TGF-α [4] | PHF cells expressing TGF-β1 [4] | PHF cells expressing TGF-β2 [4] | PHF cells expressing TGF-β3 [4] | PHF cells expressing MMP-3 [5] | PHF cells expressing MMP-7 [5] | PHF cells expressing MMP-9 [5] | PHF cells expressing MMP-11 [5] | PHF cells expressing MMP-13 [5] | PHF cells expressing MMP-14 [5] | PHF cells expressing SPARC [5] | PHF cells expressing TGF-α [5] | PHF cells expressing TGF-β1 [5] | PHF cells expressing TGF-β2 [5] | PHF cells expressing TGF-β3 [5] | PHF cells expressing MMP-3 [6] | PHF cells expressing MMP-7 [6] | PHF cells expressing MMP-9 [6] | PHF cells expressing MMP-11 [6] | PHF cells expressing MMP-13 [6] | PHF cells expressing MMP-14 [6] | PHF cells expressing SPARC [6] | PHF cells expressing TGF-α [6] | PHF cells expressing TGF-β1 [6] | PHF cells expressing TGF-β2 [6] | PHF cells expressing TGF-β3 [6] | cells expressing MMP-3 [7] | cells expressing MMP-7 [7] | cells expressing MMP-9 [7] | cells expressing MMP-11 [7] | cells expressing MMP-13 [7] | cells expressing MMP-14 [7] | cells expressing SPARC [7] | cells expressing TGF-α [7] | cells expressing TGF-β1 [7] | cells expressing TGF-β2 [7] | cells expressing TGF-β3 [7] | fibroblasts expressing MMP-7 [8] | fibroblasts expressing MMP-11 [8] | fibroblasts expressing MMP-14 [8] | fibroblasts expressing TGF-α [8] | fibroblasts expressing TGF-β 1 [8] | fibroblasts expressing TGF-β 2 [8] | fibroblasts expressing TGF-β 3 [8] | Percentage of fibroblast cells which expressed MMP-3 [9, 10] | Percentage of fibroblast cells which expressed MMP-7 [9, 10] | Percentage of fibroblast cells which expressed MMP-9 [9, 10] | Percentage of fibroblast cells which expressed MMP-11 [9, 10] | Percentage of fibroblast cells which expressed MMP-13 [9, 10] | Percentage of fibroblast cells which expressed MMP-14 [9, 10] | Percentage of fibroblast cells which expressed SPARC [9, 10] | Percentage of fibroblast cells which expressed TGFα [9, 10] | Percentage of fibroblast cells which expressed TGFβ1 [9, 10] | Percentage of fibroblast cells which expressed TGFβ2 [9, 10] | Percentage of fibroblast cells which expressed TGFβ3 [9, 10] | Percentage of fibroblast cells which expressed MMP-3 [9, 11] | Percentage of fibroblast cells which expressed MMP-7 [9, 11] | Percentage of fibroblast cells which expressed MMP-9 [9, 11] | Percentage of fibroblast cells which expressed MMP-11 [9, 11] | Percentage of fibroblast cells which expressed MMP-13 [9, 11] | Percentage of fibroblast cells which expressed MMP-14 [9, 11] | Percentage of fibroblast cells which expressed SPARC [9, 11] | Percentage of fibroblast cells which expressed TGFα [9, 11] | Percentage of fibroblast cells which expressed TGFβ1 [9, 11] | Percentage of fibroblast cells which expressed TGFβ2 [9, 11] | Percentage of fibroblast cells which expressed TGFβ3 [9, 11] | Percentage of fibroblast cells which expressed MMP-3 [9, 12] | Percentage of fibroblast cells which expressed MMP-7 [9, 12] | Percentage of fibroblast cells which expressed MMP-9 [9, 12] | Percentage of fibroblast cells which expressed MMP-11 [9, 12] | Percentage of fibroblast cells which expressed MMP-13 [9, 12] | Percentage of fibroblast cells which expressed MMP-14 [9, 12] | Percentage of fibroblast cells which expressed SPARC [9, 12] | Percentage of fibroblast cells which expressed TGFα [9, 12] | Percentage of fibroblast cells which expressed TGFβ1 [9, 12] | Percentage of fibroblast cells which expressed TGFβ2 [9, 12] | Percentage of fibroblast cells which expressed TGFβ3 [9, 12] | Percentage of fibroblast cells which expressed MMP-3 [9, 13] | Percentage of fibroblast cells which expressed MMP-7 [9, 13] | Percentage of fibroblast cells which expressed MMP-9 [9, 13] | Percentage of fibroblast cells which expressed MMP-11 [9, 13] | Percentage of fibroblast cells which expressed MMP-13 [9, 13] | Percentage of fibroblast cells which expressed MMP-14 [9, 13] | Percentage of fibroblast cells which expressed SPARC [9, 13] | Percentage of fibroblast cells which expressed TGFα [9, 13] | Percentage of fibroblast cells which expressed TGFβ1 [9, 13] | Percentage of fibroblast cells which expressed TGFβ2 [9, 13] | Percentage of fibroblast cells which expressed TGFβ3 [9, 13] | Percentage of fibroblast cells which expressed MMP-3 [9, 14] | Percentage of fibroblast cells which expressed MMP-7 [9, 14] | Percentage of fibroblast cells which expressed MMP-9 [9, 14] | Percentage of fibroblast cells which expressed MMP-11 [9, 14] | Percentage of fibroblast cells which expressed MMP-13 [9, 14] | Percentage of fibroblast cells which expressed MMP-14 [9, 14] | Percentage of fibroblast cells which expressed SPARC [9, 14] | Percentage of fibroblast cells which expressed TGFα [9, 14] | Percentage of fibroblast cells which expressed TGFβ1 [9, 14] | Percentage of fibroblast cells which expressed TGFβ2 [9, 14] | Percentage of fibroblast cells which expressed TGFβ3 [9, 14]
